Experimental data from US20170009266A1, “PROCESS FOR THE ATTACHMENT OF A GALNAC MOIETY COMPRISING A (HETERO)ARYL GROUP TO A GLCNAC MOIETY, AND PRODUCT OBTAINED THEREBY” (SYNAFFIX B.V., priority 2014, published 2017).

Biological target: T1, Gal-T1(Y289L,C342T) (Bos taurus, UniProt P08037, C342T/Y289L)
T1 construct: host or cells: E. coli
T1 sequence (P08037 130-402 V158I/P187L/I205M/L206V/Y289L/C342T): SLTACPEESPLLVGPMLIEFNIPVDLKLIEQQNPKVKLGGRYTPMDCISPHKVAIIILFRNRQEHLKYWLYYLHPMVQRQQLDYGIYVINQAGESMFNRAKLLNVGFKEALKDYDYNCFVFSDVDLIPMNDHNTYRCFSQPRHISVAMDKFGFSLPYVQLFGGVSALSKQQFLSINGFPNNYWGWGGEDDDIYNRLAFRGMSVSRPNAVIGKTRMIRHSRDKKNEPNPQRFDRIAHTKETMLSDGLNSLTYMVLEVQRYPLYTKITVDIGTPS
Assay: Glycosyltransfer of UDP-galactosamine derivatives to trimmed antibody with Gal-T1(Y289L,C342T), mass spectral analysis
Type: biochemical, bovine
Protocol: A solution of 20 μg (modified) IgG was incubated for 1 hour at 37° C. with Fabricator™ (commercially available from Genovis, Lund, Sweden) (1.25 U/μL) in phosphate-buffered saline (PBS) pH 6.6 in a total volume of 10 μL. Fabricator™-digested samples were washed trice with milliQ using an Amicon Ultra-0.5, Ultracel-10 Membrane (Millipore) resulting in a final sample volume of approximately 40 μL. The Fc/2 fragment was analyzed by electrospray ionization time-of-flight (ESI-TOF) on a JEOL AccuTOF. Deconvoluted spectra were obtained using Magtran software.
Trimmed trastuzumab (10 mg/mL, 3.3 nmol), obtained by Endo S treatment of trastuzumab, was incubated with nicotinic acid variant of UDP-galactosamine (21, 2 mM) and Gal-T1(Y289L,C342T) (0.5 mg/mL, 3 μL/4 mg/ml) in 10 mM MnCl2 and 25 mM Tris-HCl pH 7.5 at 30° C. overnight. Mass spectral analysis of the sample after treatment with Fabricator™ (commercially available from Genovis) indicated the formation of the correct structure of CH2-CH3 fragment of 28 (24404 Da, expected mass 24405 Da, approximately 35% conversion), resulting from galactosamide nicotinic acid transfer to core GlcNAc(Fuc) substituted trastuzumab heavy chain.
A pET22b vector containing the sequence encoding residues 130-402 of bovine Gal-T1 with the Y289L and C342T mutations between the NdeI-BamHI sites was obtained from Genscript. Using this plasmid Gal-T1(Y289L,C342T) was expressed, isolated and refolded from inclusion bodies according to the reported procedure by Qasba et al. (Prot. Expr. Pur. 2003, 30, 219-76229, incorporated by reference herein). After refolding, the solution was dialyzed against 20 mM Tris pH 7.5 and the insoluble protein was removed by centrifugation (10 minutes 10.000 g). The soluble Gal-T1(Y289L,C342T), represented by SEQ ID NO: 25, was purified and concentrated using a cation exchange column (Source 15S HR16/10 column, GE Healthcare). After elution with 20 mM Tris-HCl pH 7.5, 1 M NaCl, the protein was dialyzed against 20 mM Tris-HCl pH 7.5. This procedure yielded 90 mg inclusion bodies from 0.5 L culture, which after refolding gave 3.9 mg active soluble protein.
Trimmed trastuzumab (10 mg/mL, 66 μM), obtained by Endo S treatment of trastuzumab, was incubated with the 4-azido-2,3,5,6-tetrafluorobenzoyl derivative of UDP-galactosamine (23b, 1 mM) and Gal-T1(Y289L,C342T) (1.0 mg/mL) in 10 mM MnCl2 and 25 mM Tris-HCl pH 8.0 at 30° C. overnight. Mass spectral analysis of the Fabricator™-digested sample indicated a partial conversion of core GlcNac(Fuc)-substituted trastuzumab (observed mass 24139 Da, calculated mass of 24136 Da) into the product 30b (observed mass 24518 Da, calculated mass of 24514 Da, approximately 10% of total Fc/2 fragment), resulting from transfer of 23b to core GlcNAc(Fuc)-substituted trastuzumab.
Trimmed cetuximab (5 mg/mL, 33 μM), obtained by Endo S treatment of cetuximab, was incubated with the 4-azido-2,3,5,6-tetrafluorobenzoyl derivative of UDP-galactosamine (23b, 2 mM) and Gal-T1(Y289L,C342T) (1.0 mg/mL) in 25 mM Tris-HCL pH 7.5 and 150 mM NaCl at 30° C. overnight. Mass spectral analysis of the Fabricator™-digested sample indicated a partial conversion of the core GlcNac(Fuc)-substituted adalimumab (observed mass 24138 Da, calculated mass of 24136 Da) into product 30b (observed mass 24518 Da, calculated mass of 24514 Da, approximately 20% of total Fc/2 fragment), resulting from transfer of 23b to core GlcNAc(Fuc)-substituted adalimumab.
Trimmed bevacizumab (5 mg/mL, 33 μM), obtained by Endo S treatment of bevacizumab, was incubated with the 4-azido-2,3,5,6-tetrafluorobenzoyl derivative of UDP-galactosamine (23b, 2 mM) and Gal-T1(Y289L,C342T) (1.0 mg/mL) in 25 mM Tris-HCL pH 7.5 and 150 mM NaCl at 30° C. overnight. […]

SMILES: O=C(NC1C(OP(=O)(O)OP(=O)(O)OCC2OC(n3ccc(=O)[nH]c3=O)C(O)C2O)OC(CO)C(O)C1O)c1cccnc1 (stereo not shown) [Compound 21, 3-pyridylcarbonyl Derivative of UDP-GalNH2]
- conversion (trimmed trastuzumab 10 mg/mL, UDP derivative 2 mM, enzyme 0.5 mg/mL (E. coli), pH 7.5, 30° C. overnight, Fabricator-digested): approximately 35%

SMILES: [N-]=[N+]=Nc1ccc(C(=O)NC2C(OP(=O)(O)OP(=O)(O)OCC3OC(n4ccc(=O)[nH]c4=O)C(O)C3O)OC(CO)C(O)C2O)cn1 (stereo not shown) [Compound 21b, 6-azidonicotinic Acid Derivative of UDP-GalNH2]
- product, % of total Fc/2 fragment (trimmed trastuzumab 10 mg/mL, UDP derivative 5 mM, enzyme 1.0 mg/mL, pH 7.5, 30° C. overnight): approximately 95%

SMILES: [N-]=[N+]=Nc1c(F)cc(C(=O)N[C@H]2[C@@H](OP(=O)(O)OP(=O)(O)OC[C@H]3O[C@@H](n4ccc(=O)[nH]c4=O)[C@H](O)[C@@H]3O)O[C@H](CO)[C@H](O)[C@@H]2O)cc1F [Compound 23, 4-azido-3,5-difluorobenzoyl Derivative of UDP-GalNH2]
- conversion of core GlcNAc(Fuc)-substituted trastuzumab into product (trimmed trastuzumab 10 mg/mL, UDP derivative 1 mM, enzyme 1.0 mg/mL, pH 8.0, 30° C. overnight, reduced sample): complete conversion

SMILES: [N-]=[N+]=Nc1c(F)c(F)c(C(=O)N[C@H]2[C@@H](OP(=O)(O)OP(=O)(O)OC[C@H]3O[C@@H](n4ccc(=O)[nH]c4=O)[C@H](O)[C@@H]3O)O[C@H](CO)[C@H](O)[C@@H]2O)c(F)c1F [Compound 23b, 4-azido-2,3,5,6-tetrafluorobenzoyl Derivative of UDP-GalNH2]
- product, % of total Fc/2 fragment (trimmed adalimumab 5 mg/mL, UDP derivative 2 mM, enzyme 1.0 mg/mL, pH 7.5, 30° C. overnight): approximately 30%
- product, % of total Fc/2 fragment (trimmed bevacizumab 5 mg/mL, UDP derivative 2 mM, enzyme 1.0 mg/mL, pH 7.5, 30° C. overnight): approximately 30%
- product, % of total Fc/2 fragment (trimmed cetuximab 5 mg/mL, UDP derivative 2 mM, enzyme 1.0 mg/mL, pH 7.5, 30° C. overnight): approximately 20%
- product, % of total Fc/2 fragment (trimmed trastuzumab 10 mg/mL, UDP derivative 1 mM, enzyme 1.0 mg/mL, pH 8.0, 30° C. overnight): approximately 10%
